Assay results reported in patent US20050234103A1, “Crystalline forms of rabeprazole sodium” (priority 2002, published 2005).

Conditions: as compared to prazoles such as panto prazole sodium and omeprazole sodium

COCCCOc1ccnc(C[S+]([O-])c2nc3ccccc3[n-]2)c1C.[Na+] (stereo not shown) [Form X, 2-[[[4-(3-methoxypropoxy)-3-methyl-2-pyridinyl]-methyl]sulfinyl]-1H-benzimidazole sodium]
chemical stability such as thermo stability and light stability: better chemical stability
